This is an account of results in US20110105474A1, “HETEROCYCLIC DERIVATIVES AS HDAC INHIBITORS” (DAC S.r.l., priority 2008, published 2011).

Where a name gives a salt, the structure may show the parent alone. Where only a bound is given, the exact number is not on record here.

As a reminder, the IC50 is the midpoint of a concentration-inhibition curve.

Holding throughout (assay type): cell-based
Experiment [1] deals with A549 cells. Description: Cell growth, CellTiter-Glo Luminescent Cell Viability Assay, A549. As to conditions: Homo sapiens, 72 h incubation. The text has this: (§1) CellTiter-Glo® Luminescent Cell Viability Assay (Promega) is a homogeneous method of determining the number of viable cells in culture based on quantitation of the present ATP, which indicates the presence of metabolically active cells. The homogeneous assay procedure involves addition of a single reagent (CellTiter-Glo®Reagent) directly to the cells, which leads to cell lysis and generation of a luminescent signal proportional to the amount of the ATP and the number of cells present in culture. The assay relies on the properties of a proprietary thermostable luciferase (Ultra-Glo® recombinant luciferase), which generates a luminescent signal.
(§2) K562, A549 and HCT-116 cells, in exponential growth, were incubated for 72 h with different concentrations of the inhibitors. After 72 h, a volume of CellTiter-Glo® Reagent equal to the volume of cell culture medium was added. The content was mixed for 2 min to induce cell lysis. The luminescence was recorded after further 10 min at RT in order to obtain a stabilized luminescent signal.
(§3) The IC50 was calculated using GraphPad Software.
(§4) IC50 results were allocated to one of 3 ranges as follows: Range A: IC50≦1.0 μM; Range B: from 1.0 to 3.0 μM; Range C: IC50≧3.0 μM.

For experiment [2], the system named is K562 cells. Description: Cell growth, CellTiter-Glo Luminescent Cell Viability Assay, K562. Particulars: Homo sapiens, 72 h incubation.
Excerpt: as §1, §2, §3, §4
A general note: ATP-based viability assays read luminescence as a measure of living cells.

For experiment [3], the system named is HCT-116 cells. In words: Cell growth, CellTiter-Glo Luminescent Cell Viability Assay, HCT-116. Particulars: Homo sapiens, 72 h incubation, read-out: IC50 HCT116.
Excerpt: as §1, §2, §3, §4

With `O=C(/C=C/c1cccc(/C=C/C(=O)N2CCC(c3ccccc3)CC2)n1)NO` [Example 19, (E)-N-Hydroxy-3-{6-[(E)-3-oxo-3-(4-phenyl-piperidin-1-yl)-propenyl]-pyridin-2-yl}-acrylamide hydrochloride], the half-inhibitory concentration (IC50) in experiment [1], in experiment [2] and in experiment [3] was 1000 to 3000 nM in each case.
`O=C(/C=C/c1cccc(/C=C/C(=O)N2CCN(c3ncccn3)CC2)n1)NO` [Example 20, (E)-N-Hydroxy-3{-6-[(E)-3-oxo-3-(4-pyrimidin-2-yl-piperazin-1-yl)-propenyl]-pyridin-2-yl}-acrylamide hydrochloride]: the concentration for half-maximal inhibition (IC50) in experiment [1], in experiment [2] and in experiment [3] was no less than 3000 nM throughout.
On to `O=C(/C=C/c1cccc(/C=C/C(=O)N2CCN(c3ccc(Cl)cc3)CC2)n1)NO` [Example 21, (E)-3-(6-{(E)-3-[4-(4-Chloro-phenyl)-piperazin-1-yl]-3-oxo-propenyl}-pyridin-2-yl)-N-hydroxy-acrylamide hydrochloride], for which the 50% inhibitory concentration (IC50) in experiment [1], in experiment [2] and in experiment [3] was no more than 1000 nM in each case.
In the case of `O=C(/C=C/c1cccc(/C=C/C(=O)N2CCN(Cc3ccccc3)CC2)n1)NO` [Example 22, (E)-3-{6-[(E)-3-(4-Benzyl-piperazin-1-yl)-3-oxo-propenyl]-pyridin-2-yl}-N-hydroxy-acrylamide hydrochloride], the IC50 is no less than 3000 nM in experiment [1], 1000 to 3000 nM in experiment [2] and 1000 to 3000 nM in experiment [3].
As for `O=C(/C=C/c1cccc(/C=C/C(=O)N2CCN(CCc3ccccc3)CC2)n1)NO` [Example 23, (E)-N-Hydroxy-3-{6-[(E)-3-oxo-3-(4-phenethyl-piperazin-1-yl)-propenyl]-pyridin-2-yl}-acrylamide hydrochloride], the IC50 in experiment [1] was no less than 3000 nM; in experiment [2] it was 1000 to 3000 nM; in experiment [3], 1000 to 3000 nM.
Consider `O=C(/C=C/c1cccc(/C=C/C(=O)N2CCC(C(=O)c3ccccc3)CC2)n1)NO` [Example 24, (E)-3-{6-[(E)-3-(4-Benzoyl-piperidin-1-yl)-3-oxo-propenyl]-pyridin-2-yl}-N-hydroxy-acrylamide hydrochloride], for which the half-inhibitory concentration (IC50) in experiment [1] was no less than 3000 nM; in experiment [2] it was 1000 to 3000 nM; in experiment [3], 1000 to 3000 nM.
For the molecule `O=C(/C=C/c1cccc(/C=C/C(=O)N2CC=C(c3ccccc3)CC2)n1)NO` [Example 26, (E)-N-Hydroxy-3-{6-[(E)-3-oxo-3-(4-phenyl-3,6-dihydro-2H-pyridin-1-yl)-propenyl]-pyridin-2-yl}-acrylamide hydrochloride], the half-maximal inhibitory concentration (IC50) is 1000 to 3000 nM in experiment [1], 1000 to 3000 nM in experiment [2] and no more than 1000 nM in experiment [3].
As for `Cc1cccc(C)c1C1CCN(C(=O)/C=C/c2cccc(/C=C/C(=O)NO)n2)CC1` [Example 27, (E)-3-(6-{(E)-3-[4-(2,6-Dimethyl-phenyl)-piperidin-1-yl]-3-oxo-propenyl}-pyridin-2-yl)-N-hydroxy-acrylamide hydrochloride], the half-maximal inhibitory concentration (IC50) in experiment [1], in experiment [2] and in experiment [3] was 1000 to 3000 nM each time.
As to `N#CC1(c2ccccc2)CCN(C(=O)/C=C/c2cccc(/C=C/C(=O)NO)n2)CC1` [Example 28, (E)-3-{6-[(E)-3-(4-Cyano-4-phenyl-piperidin-1-yl)-3-oxo-propenyl]-pyridin-2-yl}-N-hydroxy-acrylamide hydrochloride], the half-inhibitory concentration (IC50) is no less than 3000 nM in experiment [1], 1000 to 3000 nM in experiment [2] and 1000 to 3000 nM in experiment [3].
As for `O=C(/C=C/c1cccc(/C=C/C(=O)N2CCN(c3ccccn3)CC2)n1)NO` [Example 29, (E)-N-Hydroxy-3-{6-[(E)-3-oxo-3-(4-pyridin-2-yl-piperazin-1-yl)-propenyl]-pyridin-2-yl}-acrylamide hydrochloride], the IC50 in experiment [1], in experiment [2] and in experiment [3] was no less than 3000 nM in each case.
